{
  "source": "paper PMC8795197",
  "about": "“Safety and activity of WX-0593 (Iruplinalkib) in patients with ALK- or ROS1-rearranged advanced non-small cell lung cancer: a phase 1 dose-escalation and dose-expansion trial” (Signal Transduction and Targeted Therapy, 2022)",
  "system": "advanced NSCLC patients with ALK or ROS1 rearrangement",
  "assay": "Phase 1 dose-expansion phase: antitumor activity (RECIST 1.1, investigators)",
  "format": "in vivo, human",
  "settings": "for intracranial objective response rate: Baseline measurable CNS metastasis; for DOR, median (95% CI) / PFS, median (95% CI) / TTP, median (95% CI) / DCR (95% CI) / ORR (95% CI) / PFS, number of events (%): ALK-positive patients",
  "excerpt": "Patients continued treatment until documented disease progression, unacceptable toxicity, withdrawal of consent, the start of a new anticancer treatment, death, loss of follow-up, or end of the study (whichever occurred first). Patients were permitted to continue treatment after progression if they were still experiencing clinical benefit, at the discretion of the investigator. Patients performed imaging evaluation at baseline, with computed tomography or magnetic resonance imaging of the chest, abdomen, pelvis, and brain. In the dose-escalation phase, the first efficacy evaluation was done after 3-week continuous administration of WX-0593 and every 6 weeks thereafter. […] AEs were assessed in all patients throughout this study and graded per the National Cancer Institute Common Terminology Criteria for Adverse Events version 4.03. In the dose-expansion phase, the primary endpoint was ORR assessed by investigators. Other key secondary endpoints included PFS, DCR, time to progression (TTP), DOR, intracranial response, and safety. Additionally, overall survival (OS) was assessed as a prespecified exploratory endpoint. ORR was defined as the proportion of patients who had best overall response, including CR or PR. PFS was calculated from the date of the first dose of WX-0593 to the date of documented disease progression or death (whichever occurred first). DCR was defined as the proportion of patients who had best overall response, including CR, PR, or SD, with a duration of at least 12 weeks. TTP was calculated from the date when the first dose of WX-0593 was given to first documented disease progression. […] OS was calculated from the date when the first dose of WX-0593 was administered to the date of death from any cause. Safety analysis was performed in the SS, which was comprised of all patients treated with one dose of WX-0593 and with safety data recorded. Efficacy analysis was performed in the FAS, which was defined as all patients treated with at least one dose of WX-0593. The PK analysis set included all patients treated with at least one dose of WX-0593 and with at least one evaluable PK sample. […] Descriptive statistics were carried out to summarize patients’ baseline characteristics and safety. […] All time-to-event data (PFS, TTP, DOR, and OS) and their corresponding 95% CIs were estimated by Kaplan–Meier methods. PK parameter analyses were done with Phoenix WinNonlin version 8.0. All other statistical analyses were conducted using SAS version 9.4.",
  "key": {"[1]": {"settings": "ALK-rearranged, crizotinib as the only ALK TKI"}},
  "note": "“Also recorded” adds a separate entry of the source.",
  "data": [
    {"smiles": "COc1cc(N2CCC3(CCN(C)CC3)CC2)ccc1Nc1ncc(Cl)c(Nc2ccccc2P(C)(C)=O)n1", "note": "[WX-0593]", "values": [
      {"measurement": "objective response rate", "setting": "120mg, ALK-rearranged patients", "result": "53.2% (25/47, 38.1-67.9%)"},
      {"measurement": "objective response rate", "setting": "120mg, ALK-rearranged patients, ALK TKI naive", "result": "76.5% (13/17, 50.1-93.2%)"},
      {"measurement": "objective response rate", "setting": "120mg, ALK-rearranged patients, ALK TKI naive, chemotherapy naïve", "result": "75.0%(6/8, 34.9-96.8%)"},
      {"measurement": "objective response rate", "setting": "120mg, ALK-rearranged patients, ALK TKI naive, received chemotherapy before", "result": "77.8% (7/9, 40.0-97.2%)"},
      {"measurement": "objective response rate", "setting": "120mg, ALK-rearranged patients, Crizotinib and other ALK TKIs", "result": "0 (0/2, 0-84.2%)"},
      {"measurement": "objective response rate", "setting": "120mg, ALK-rearranged patients, Crizotinib only", "result": "44.4% (12/27, 25.5-64.7%)"},
      {"measurement": "objective response rate", "setting": "120mg, ALK-rearranged patients, Other ALK TKIs", "result": "0 (0/1, 0-97.5%)"},
      {"measurement": "objective response rate", "setting": "120mg, Baseline CNS metastasis", "result": "22.9% (8/35, 10.4-40.1%)"},
      {"measurement": "objective response rate", "setting": "120mg, Baseline CNS metastasis, ALK TKI naive", "result": "23.1% (3/13, 5.0-53.8%)"},
      {"measurement": "objective response rate", "setting": "120mg, Baseline CNS metastasis, Crizotinib only", "result": "25.0% (5/20, 8.7-49.1%)"},
      {"measurement": "objective response rate", "setting": "120mg, Baseline CNS metastasis, Radiotherapy before", "result": "16.7% (2/12, 2.1-48.4%)"},
      {"measurement": "objective response rate", "setting": "120mg, Baseline CNS metastasis, Radiotherapy naïve", "result": "26.1% (6/23, 10.2-48.4%)"},
      {"measurement": "intracranial objective response rate", "setting": "120mg", "result": "45.5% (2/11, 16.7-76.6%)"},
      {"measurement": "intracranial objective response rate", "setting": "120mg, ALK TKI naive", "result": "33.3% (1/3, 0.8-90.6%)"},
      {"measurement": "intracranial objective response rate", "setting": "120mg, Crizotinib only", "result": "50.0% (4/8, 15.7-84.3%)"},
      {"measurement": "intracranial objective response rate", "setting": "120mg, Radiotherapy before", "result": "28.6% (2/7, 3.7-71.0%)"},
      {"measurement": "intracranial objective response rate", "setting": "120mg, Radiotherapy naïve", "result": "75.0% (3/4, 19.4-99.4%)"},
      {"measurement": "objective response rate", "setting": "120mg, Prior ALK TKI treatment: Crizotinib and other ALK TKI", "result": "0 (0/2, 0-84.2%)"},
      {"measurement": "objective response rate", "setting": "120mg, Prior ALK TKI treatment: Crizotinib only", "result": "41.4% (12/29, 23.5-61.1%)"},
      {"measurement": "objective response rate", "setting": "120mg, ROS1-rearranged patients", "result": "0 (0/3, 0-70.8%)"},
      {"measurement": "objective response rate", "setting": "120mg, ROS1-rearranged patients, Crizotinib naive", "result": "0 (0/1, 0-97.5%)"},
      {"measurement": "objective response rate", "setting": "120mg, ROS1-rearranged patients, Received Crizotinib before", "result": "0 (0/2, 0-84.2%)"},
      {"measurement": "objective response rate", "setting": "120mg, dose expansion phase, Prior ALK TKI treatment: ALK TKI naive", "result": "72.2% (13/18, 46.5-90.3%)"},
      {"measurement": "objective response rate", "setting": "180mg, ALK-rearranged patients", "result": "63.6% (28/44, 47.8-77.6%)"},
      {"measurement": "objective response rate", "setting": "180mg, ALK-rearranged patients, ALK TKI naive", "result": "76.2% (16/21, 52.8-91.8%)"},
      {"measurement": "objective response rate", "setting": "180mg, ALK-rearranged patients, ALK TKI naive, chemotherapy naïve", "result": "91.7% (11/12, 61.5-99.8%)"},
      {"measurement": "objective response rate", "setting": "180mg, ALK-rearranged patients, ALK TKI naive, received chemotherapy before", "result": "55.6% (5/9, 21.2-86.3%)"},
      {"measurement": "objective response rate", "setting": "180mg, ALK-rearranged patients, Crizotinib and other ALK TKIs", "result": "66.7% (2/3, 9.4-99.2%)"},
      {"measurement": "objective response rate", "setting": "180mg, ALK-rearranged patients, Crizotinib only", "result": "47.4% (9/19, 24.4-71.1%)"},
      {"measurement": "objective response rate", "setting": "180mg, ALK-rearranged patients, Other ALK TKIs", "result": "100% (1/1, 2.5-100.0%)"},
      {"measurement": "objective response rate", "setting": "180mg, Baseline CNS metastasis, ALK TKI naive", "result": "28.6% (2/7, 3.7-71.0%)"},
      {"measurement": "objective response rate", "setting": "180mg, Baseline CNS metastasis, Crizotinib only", "result": "15.4% (2/13, 1.9-45.4%)"},
      {"measurement": "objective response rate", "setting": "180mg, Baseline CNS metastasis, Radiotherapy before", "result": "0 (0/7, 0-41.0%)"},
      {"measurement": "objective response rate", "setting": "180mg, Baseline CNS metastasis, Radiotherapy naïve", "result": "31.3% (5/16, 11.0-58.7%)"},
      {"measurement": "intracranial objective response rate", "setting": "180mg", "result": "50.0% (2/4, 6.8-93.2%)"},
      {"measurement": "intracranial objective response rate", "setting": "180mg, ALK TKI naive", "result": "100% (1/1, 2.5-100%)"},
      {"measurement": "intracranial objective response rate", "setting": "180mg, Crizotinib only", "result": "50.0% (1/2, 1.3-98.7%)"},
      {"measurement": "intracranial objective response rate", "setting": "180mg, Radiotherapy naïve", "result": "31.3% (5/16, 11.0-58.7%)"},
      {"measurement": "objective response rate", "setting": "180mg, Prior ALK TKI treatment: Crizotinib and other ALK TKI", "result": "66.7% (2/3, 9.4-99.2%)"},
      {"measurement": "objective response rate", "setting": "180mg, Prior ALK TKI treatment: Crizotinib only", "result": "42.9% (9/21, 21.8-66.0%)"},
      {"measurement": "objective response rate", "setting": "180mg, ROS1-rearranged patients", "result": "66.7% (4/6, 22.3-95.7%)"},
      {"measurement": "objective response rate", "setting": "180mg, ROS1-rearranged patients, Crizotinib naive", "result": "100% (4/4, 39.8-100%)"},
      {"measurement": "objective response rate", "setting": "180mg, ROS1-rearranged patients, Received Crizotinib before", "result": "0 (0/2, 0-84.2%)"},
      {"measurement": "objective response rate", "setting": "180mg, dose expansion phase, Prior ALK TKI treatment: ALK TKI naive", "result": "79.2% (19/24, 57.8-92.9%)"},
      {"measurement": "DCR", "setting": "ALK TKI naive", "result": 92.9, "unit": "%"},
      {"measurement": "ORR", "setting": "ALK TKI naive", "result": 76.2, "unit": "%"},
      {"measurement": "median PFS", "setting": "ALK TKI naive", "result": "not reached"},
      {"measurement": "DOR, median (95% CI)", "setting": "120 mg", "result": "NR (5.52, NR)"},
      {"measurement": "PFS, median (95% CI)", "setting": "120 mg", "result": "NR (6.87, NR)"},
      {"measurement": "TTP, median (95% CI)", "setting": "120 mg", "result": "NR (6.87, NR)"},
      {"measurement": "DCR (95% CI)", "setting": "120 mg (n=47)", "result": "83.0% (69.2%, 92.4%)"},
      {"measurement": "ORR (95% CI)", "setting": "120 mg (n=47)", "result": "53.2% (38.1%, 67.9%)"},
      {"measurement": "PFS, number of events (%)", "setting": "120 mg (n=47)", "result": "12 (25.5%)"},
      {"measurement": "DOR, median (95% CI)", "setting": "180 mg", "result": "NR (5.49, NR)"},
      {"measurement": "PFS, median (95% CI)", "setting": "180 mg", "result": "NR (NR, NR)"},
      {"measurement": "TTP, median (95% CI)", "setting": "180 mg", "result": "NR (NR, NR)"},
      {"measurement": "DCR (95% CI)", "setting": "180 mg (n=44)", "result": "88.6% (75.4%, 96.2%)"},
      {"measurement": "ORR (95% CI)", "setting": "180 mg (n=44)", "result": "63.6% (47.8%, 77.6%)"},
      {"measurement": "PFS, number of events (%)", "setting": "180 mg (n=44)", "result": "8 (18.2%)"},
      {"measurement": "DOR, median (95% CI)", "setting": "total", "result": "NR (5.65, NR)"},
      {"measurement": "PFS, median (95% CI)", "setting": "total", "result": "not reached (95% CI 6.93 months to NR); also recorded: NR (6.93, NR)"},
      {"measurement": "TTP, median (95% CI)", "setting": "total", "result": "NR (6.93, NR)"},
      {"measurement": "PFS, number of events (%)", "setting": "total (n=91)", "result": "20 (22.0%)"},
      {"measurement": "patients who achieved SD", "setting": "ALK-rearranged patients (n = 91)", "result": "Twenty-five"},
      {"measurement": "ORR", "setting": "ALK-rearranged, ALK TKI naive", "result": 76.3, "unit": "%"},
      {"measurement": "ORR", "setting": "ALK-rearranged, ALK TKI naive, chemotherapy-naive", "result": 85.0, "unit": "%"},
      {"measurement": "ORR", "setting": "ALK-rearranged, ALK TKI naive, received chemotherapy", "result": 66.7, "unit": "%"},
      {"measurement": "ORR", "setting": "[1]", "result": 45.7, "unit": "%"},
      {"measurement": "median PFS", "setting": "[1]", "result": 6.9, "unit": "months"},
      {"measurement": "patients who achieved PR, n (%)", "setting": "FAS n = 99", "result": "56 (56.6%)"},
      {"measurement": "patients with progressive disease, n (%)", "setting": "FAS n = 99", "result": "8 (8.1%)"},
      {"measurement": "patients with stable disease (SD), n (%)", "setting": "FAS n = 99", "result": "27 (27.3%)"}
    ]}
  ]
}
